{"source": "patent US20130209359A1", "about": "“Small Peptides Specifically Bind to Colorectal Cancers” (The Johns Hopkins University, priority 2007, published 2013)", "format_in_all_cases": "cell-based", "key": {"[1]": {"system": "Caco-2 colon adenocarcinoma cell line", "experiment": "Binding of 32P-labeled decapeptides to cell lines", "procedure": "(§1) Assay of the binding of ^32P-labeled decapeptides to cell lines: Cell lines were grown in complete medium containing 10% bovine fetal serum (heat inactivated). In each well of a 96-well plate, 10,000 cells from various cell lines were grown overnight in complete medium. Ten μl of the labeled-peptide in 1×PBS and 90 μl of complete medium were added to each well and incubated at 37° C. at various times of up to two hours. The peptide-medium was removed and one μl added to 100 ul gel loading buffer and counted by scintillation counting for the probe control or run on a polyacrylamide-SDS gel (Biorad). The adherent cells were briefly and gently washed with complete medium three times and some wells were assayed immediately by adding 100 μl of gel loading buffer to each well and run on a gel or counted in a scintillation counter. Other wells had 100 μl complete medium added and incubated for a further time period. Samples were either counted in a liquid scintillation counter or run on polyacrylamide-SDS gels, exposed to x-ray film, and the film developed."}, "[2]": {"system": "HCT116 colon adenocarcinoma cells", "experiment": "Binding of 32P-labeled decapeptides to cell lines", "details": "two-hour incubation, washes; average", "procedure": "as §1"}, "[3]": {"system": "HT1080 fibrosarcoma cells", "experiment": "Binding of 32P-labeled decapeptides to cell lines", "details": "two-hour incubation, washes", "procedure": "as §1"}, "[4]": {"system": "HeLa S3 cervical cancer cells", "experiment": "Binding of 32P-labeled decapeptides to cell lines", "details": "two-hour incubation, washes; average", "procedure": "as §1"}, "[5]": {"system": "eleven nonbinding cell lines", "experiment": "Binding of 32P-labeled decapeptides to cell lines", "procedure": "as §1"}, "[6]": {"system": "human embryonic kidney cell line 293H", "experiment": "Binding of 32P-labeled decapeptides to cell lines", "details": "two-hour incubation, washes", "procedure": "as §1"}, "[7]": {"system": "colon adenocarcinoma cell lines (Caco-2, HCT15, HCT116, LoVo, HT29)", "experiment": "Binding and overnight release/retention of 32P-labeled decapeptide", "details": "two-hour incubation", "procedure": "as §1"}, "[8]": {"details": "two hours incubation, three wash steps, overnight incubation in medium"}}, "data": [{"sequence": "GSRRASVASA (synthetic or recombinant sequence) [MA5]", "values": [{"measurement": "retained counts per hour per cell", "setting": "[1]; after overnight incubation", "value": "348 counts per hour, per cell"}, {"measurement": "retained counts extrapolated per cell per day", "setting": "[1]; after overnight incubation, extrapolated", "value": "over 8,300 counts per cell per day"}, {"measurement": "percentage of the total radioactive counts present in the incubation well retained by cells", "setting": "[1]; after two-hour incubation", "value": "approximately 18%"}, {"measurement": "time to plateau of 32P-peptide release into medium", "setting": "[1]; after washing", "value": "≤ 24", "unit": "h"}, {"measurement": "retained counts per cell extrapolated over a potential 2-week exposure period", "setting": "[1]; extrapolated over 2 weeks", "value": "over 87,000 counts per cell"}, {"measurement": "time by which the majority of total released counts are released", "setting": "[1]; release after washing over a 48-hour time period", "value": "released by nine hours of incubation"}, {"measurement": "cpm retained by cells after overnight incubation", "setting": "[1]; triplicate wells containing 10,000 cells each, three washes, overnight at 37 C", "value": "58,305 cpm"}, {"measurement": "relative binding among decapeptides (in words)", "setting": "[1]; two hour incubation", "value": "most efficient binding decapeptide"}, {"measurement": "radioactive dose transferred per cell", "setting": "[1]; two hour incubation, wash, immediate determination of retained radioactivity", "value": "over 29 counts per minute per cell"}, {"measurement": "originally retained 32P isotope released", "setting": "[1]; [8]", "value": 88, "unit": "%"}, {"measurement": "originally retained 32P isotope retained by cells", "setting": "[1]; [8]", "value": 12, "unit": "%"}, {"measurement": "retention difference between decapeptide variants", "setting": "[1]; two hours' incubation, variant MA2 vs. variant MA5", "value": 70, "unit": "fold"}, {"measurement": "32P counts per minute (cpm) remaining bound", "setting": "[1]; two-hour incubation, washes with complete medium, average of triplicate wells", "value": "298,639 cpm per 10,000 cells"}, {"measurement": "32P counts per minute (cpm) remaining bound", "setting": "[2]", "value": "131,998 cpm per 10,000 cells"}, {"measurement": "32P counts per minute (cpm) remaining bound", "setting": "[3]", "value": 367, "unit": "cpm"}, {"measurement": "32P counts per minute (cpm) remaining bound", "setting": "[4]", "value": "534 cpm per 10,000"}, {"measurement": "average cpm of the eleven nonbinding cell lines", "setting": "[5]; two-hour incubation, 10,000 cells, washed three times", "value": 365, "unit": "cpm"}, {"measurement": "mean cpm values of blank wells and nonbinding cell lines", "setting": "[5]; two-hour incubation, washes", "value": "less than 550 cpm"}, {"measurement": "32P counts per minute (cpm) remaining bound", "setting": "[6]", "value": "429 cpm per 10,000 cells"}, {"measurement": "retention of radioactivity (in words)", "setting": "[7]; five of sixteen cell lines", "value": "very strong retention of radioactivity"}, {"measurement": "initially retained radioactive counts retained by cells", "setting": "[7]; washes, overnight incubation", "value": "approximately 12%"}]}]}
